# Reference: patent US20260053723A1, “PLAQUE DISCLOSING COMPOSITION” (AIOBIO CO, LTD., priority 2020, published 2026)
# Tests used:
# [1] = Highest concentration at which RPS was completely dissolved; format: physicochemical
# Description: (§1) Sterile distilled water (DW, (1)), gargle (GG, Soom Mouthwash, (2)), saliva (S (F-X), (3)) and filtered saliva (S(F-O), (4)) 100 mg/ml RPS stock formulation (plates were prepared after preparation by diluting at concentrations of 100 mg/mL, 50 mg/mL, 25 mg/mL, 12.5 mg/mL, 6.25 mg/ml, 3.12 mg/mL, 1.5 mg/mL, 0.78 mg/mL, 0.39 mg/mL, 0.19 mg/mL, and 0.1 mg/mL.
# A plaque staining agent, 2-tone (2T), used in clinical practice was diluted to a concentration of 10% and set as a control group. As an experimental group, two concentrations, 50 mg/mL (the highest concentration at which RPS was completely dissolved) and 0.4 mg/mL (the strongest fluorescence intensity), were selected based on the results of Experimental Example 1 above.
# [2] = Evaluation of fluorescence intensity of RPS (Qraycam Pro images, fluorescence spectrometer); format: physicochemical
# Description: as §1
# Each plate prepared was photographed with the Qraycam Pro (AIOBIO, Seoul, Korea) to obtain white light and blue light images. Then, fluorescence intensity was measured using a fluorescence spectrometer (Varioskan, excitation=405 nm/emission=520 nm).
compound,measurement,setting,value
"Cc1cc2nc3c(=O)[nH]c(=O)nc-3n(C[C@H](O)[C@H](O)[C@H](O)COP(=O)([O-])O)c2cc1C.[Na+] [RPS, riboflavin 5-phosphate sodium]",highest concentration at which RPS was completely dissolved,[1],50 mg/mL
same,trend of fluorescence intensity with concentration,"[2]; fluorescence spectrometer, excitation=405 nm/emission=520 nm","increased from 0.01 mg/mL to 0.39 mg/mL, and then decreased again"
same,concentration of the maximum fluorescence intensity,"[2]; fluorescence spectrometer, excitation=405 nm/emission=520 nm, all solvents (DW, gargle, saliva, filtered saliva)",400 µg/mL
same,"fluorescence colour, visual evaluation of images",[2]; shift from high concentration (100 mg/mL) to low concentration,red fluorescence was converted to green fluorescence
same,"difference in fluorescence between solvents, visual evaluation","[2]; white light and blue light images, DW, gargle, saliva, filtered saliva",no difference in fluorescence was observed between solvents
